Experimental data reported in PubChem BioAssay AID652289 (Broad Institute, 2013).
“And” between values parts separate entries of the source, which are not always exact repeats. Equal values may be shown once. The source made the active and inactive calls. The rule behind the calls is not given here.

Columns and labels:
[1] = light production inducers, absence of autoinducers, V. cholerae bh1651 strain, confirmatory (AID 652289); conditions: V. cholerae BH1651 luxOD47E, luciferase light induction, 6 h
[2] = test system: V. cholerae BH1651 luxOD47E, luciferase light induction, 6 h; experiment: as above

| SMILES | light induction ([1]; at 100 µM (top of the series)) | AC40 [2] | also measured |
| --- | --- | --- | --- |
| O=C(Cc1ccc(-c2ccccc2)cc1)NC1CCC1 | -0.023% (inactive) |  |  |
| Cc1cc(F)c2cc3c(NC(=O)c4ccco4)nn(C)c3nc2c1 |  | 33.5 µM |  |
| O=C(CC1CCCCC1)Nc1nnc(-c2ccc3c(c2)CCCC3)o1 |  |  | light induction ([1]; at 35 µM (top of the series)): 0.061% (inactive) |
| CC(C)c1ccc2cc3c(NC(=O)c4ccco4)nn(C)c3nc2c1 | 0.507% (inactive) |  |  |
| O=C(Nc1nnc(C2CCCC2)o1)C1CCCCC1 | -0.015% (inactive) |  |  |
| CCc1ccc2cc3c(NC(=O)c4ccco4)nn(C)c3nc2c1 |  | 32.9 µM |  |
| COc1ccccc1-c1nnc(NC(=O)C2CCCCC2)o1 |  | > 100 µM (inactive) |  |
| Cc1cc(F)cc2nc3c(cc12)c(NC(=O)c1ccco1)nn3C |  | 41.3 µM |  |
| Cc1ccc2cc3c(NC(=O)c4cccs4)nn(C)c3nc2c1 |  | 70.8 µM |  |
| CCCCCCCCCC(=O)[C@H](O)CC (racemic) | 0.014% (inactive) |  |  |
| Cc1ccc2cc3c(NC(=O)c4ccoc4)nn(C)c3nc2c1 |  |  | light induction ([1]; at 80 µM (top of the series)): 2.86% (inactive) |
| O=C(Nc1nnc(-c2ccc3c(c2)OCCO3)o1)C1CCCCC1 |  | 5.31 µM and 2.57 µM |  |
| COc1ccc(-c2nnc(NC(C)=O)o2)cc1 | 0.045% (inactive) |  |  |
| c1ccc(CNc2nnc(-c3ccc4c(c3)OCCO4)o2)cc1 | -0.004% (inactive) |  |  |
| O=C(Nc1nnc(-c2cccc(Cl)c2)o1)C1CCCCC1 |  |  | light induction ([1]; at 80 µM (top of the series)): 0.065% (inactive) |
| CCC(C)(C)C(=O)Nc1nnc(-c2ccc3c(c2)OCCO3)o1 |  |  | light induction ([1]; at 80 µM (top of the series)): -0.006% (inactive) |
| Cc1ccc2cc3c(NC(=O)c4cc5ccccc5o4)nn(C)c3nc2c1 | -0.007% (inactive) |  |  |
| CCCCCCCCCC(=O)C(O)CC (stereo unspecified) |  |  | light induction ([1]; at 50 µM (top of the series)): 0.038% (inactive) |
| Cn1nc(NC(=O)c2ccco2)c2cc3ccc(C(C)(C)C)cc3nc21 | 0% (inactive) |  |  |
| Cc1cc2nc3c(cc2cc1F)c(NC(=O)c1ccco1)nn3C |  | 68.7 µM |  |
| O=C(Nc1nnc(-c2ccc3c(c2)OCCO3)o1)C(F)(F)c1ccccc1 | -0.004% (inactive) |  |  |
| Cc1ccc2cc3c(NC(=O)Cc4ccco4)nn(C)c3nc2c1 | 1.12% (inactive) |  |  |
| O=C(CC1CCCCC1)Nc1nnc(-c2cccnc2)o1 |  |  | light induction ([1]; at 80 µM (top of the series)): -0.016% (inactive) |
| Cn1nc(NC(=O)c2ccco2)c2cc3ccccc3nc21 |  | 3.58 µM |  |
| Cc1ccc2cc3c(NC(=O)c4ccccn4)nn(C)c3nc2c1 | 0.001% (inactive) |  |  |
| Cn1nc(NC(=O)c2ccco2)c2ccccc21 |  | 89.4 µM |  |

| SMILES | light induction ([1]; at 100 µM (top of the series)) | AC40 [2] | also measured |
| --- | --- | --- | --- |
| Cc1ccc2cc3c(NC(=O)c4ccco4)nn(C)c3nc2c1 |  | 5.26 µM and 15.3 µM |  |
| O=C(Nc1nnc(-c2ccncc2)o1)C1CCC1 | 0.055% (inactive) |  |  |
| CN(C)/C=N/c1nnc(-c2ccc3c(c2)OCCO3)o1 | 0.039% (inactive) |  |  |
| CC(C)(C)OC(=O)N1CCC(C(=O)Nc2nnc(-c3ccc4c(c3)OCCO4)o2)CC1 | 0.028% (inactive) |  |  |
| Cn1ccc(NC(=O)c2ccco2)n1 | 0.053% (inactive) |  |  |
| O=C(Nc1nnc(-c2ccc3c(c2)OCCO3)o1)C1CCCCCC1 |  | 6.99 µM |  |
| COc1ccc2cc3c(NC(=O)c4ccco4)nn(C)c3nc2c1 |  | 2.73 µM |  |
| C(=N\c1nnc(-c2ccc3c(c2)OCCO3)o1)/c1ccccc1 | 0.005% (inactive) |  |  |
| COc1cccc(-c2nnc(NC(=O)C3CCCCC3)o2)c1 | -0.005% (inactive) |  |  |
| O=C(Nc1nnc(-c2ccccc2Cl)o1)C1CCCCC1 | -0.01% (inactive) |  |  |
| Cc1ccc2cc3c(NC(=O)C4CCCC4)nn(C)c3nc2c1 |  | 40.6 µM |  |
| COc1ccc(S(=O)(=O)Nc2nnc(-c3ccc4c(c3)OCCO4)o2)cc1 | 0.005% (inactive) |  |  |
| Cc1cc2cc3c(NC(=O)c4ccco4)nn(C)c3nc2cc1C |  | 63.3 µM |  |
| Cc1ccc2cc3c(NC(=O)c4ccc(C)o4)nn(C)c3nc2c1 | -0.015% (inactive) |  |  |
| O=C(Nc1nnc(-c2ccc3c(c2)CCCC3)o1)C1CCC1 |  |  | light induction ([1]; at 80 µM (top of the series)): -0.005% (inactive) |
| O=C(Nc1nnc(-c2ccc(Cl)cc2)o1)C1CCCCC1 |  |  | light induction ([1]; at 80 µM (top of the series)): -0.026% (inactive) |
| O=C(Nc1nnc(-c2cccnc2)o1)C1CCC1 | 0.001% (inactive) |  |  |
| O=S(=O)(Nc1nnc(-c2ccc3c(c2)OCCO3)o1)c1ccc(Cl)cc1 | -0.005% (inactive) |  |  |
| O=C(Nc1nnc(-c2cccnc2)o1)C1CCCCC1 |  | 61.3 µM |  |
| COc1ccc(-c2nnc(NC(=O)C3CCCCC3)o2)cc1 |  | > 100 µM (inactive) |  |
| O=C(Nc1nnc(-c2ccc3c(c2)OCCO3)o1)C1CC1 | 0.004% (inactive) |  |  |
| O=C(Nc1nnc(-c2ccc3c(c2)OCCO3)o1)C1CCC1 | 0.013% (inactive) |  |  |
| CCn1nnnc1NCc1ccc(C(C)C)cc1 | -0.004% (inactive) |  |  |
| CN1CCC(C(=O)Nc2nnc(-c3ccc4c(c3)OCCO4)o2)CC1 | 0.052% (inactive) |  |  |
| Cn1nc(NC(=O)c2ccco2)c2cccnc21 |  | 58.4 µM |  |
